The results in this text go back to patent publication EP0044212B1, “Herbicidal o-alkylsulfonyloxy- and o-alkylsulfonylamino-benzenesulfonamides” (E.I. DU PONT DE NEMOURS AND COMPANY, priority 1980, dated 1982).

For one assay, the system named is Mustard. The assay is described as follows: Test B pre-emergence on Fallsington silt loam. It counts as in vivo, Brassica arvensis. The conditions noted are these: 28 days. The source says: (§1) Two plastic bulb pans were filled with fertilized and limed Fallsington silt loam soil. One pan was planted with corn, sorghum, Kentucky bluegrass and several grassy weeds. The other pan was planted with cotton, soybeans, purple nutsedge (Cyperus rotundus), and several broadleaf weeds. The following grassy and broadleaf weeds were planted: crabgrass (Digitaria sanguinalis), barnyardgrass (Echinochloa crusgalli), wild oats (Avena fatua), johnsongrass (Sorghum halepense), dallisgrass (Paspalum dilatatum), giant foxtail (Setaria faberii), cheatgrass (Bromus secalinus), mustard (Brassica arvensis), cocklebur (Xanthium pensylvanicum), pigweed (Amaranthus retroflexus), morningglory (Ipomoea hederacea), cassia (Cassia tora), teaweed (Sida spinosa), velvetleaf (Abutilon theophrasti), and jimsonweed (Datura stramonium). A 12.5 cm diameter plastic pot was also filed with prepared soil and planted with rice and wheat. Another 12.5 cm pot was planted with sugarbeets. The above four containers were treated pre- emergence with several test compounds within the scope of the invention.
(§2) Twenty-eight days after treatment, the plants were evaluated and visually rated for response to the chemical treatments utilizing the rating system described previously for Test A. The data are summarized in Table B.

Assay [1] concerns Cotton. Nature of the assay: Test B pre-emergence on Fallsington silt loam. To be noted: 28 days. It counts as in vivo. A digest of the protocol: (§3)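 Visual ratings of plant response, taken twenty-eight days after application, are reported. Compounds were applied to the soil surface before emergence of weeds sown in fertilized and limed Fallsington silt loam.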
The next assay relates to Teaweed. The assay is described as follows: Test B pre-emergence on Fallsington silt loam. To be noted: 28 days. It counts as in vivo, Sida spinosa.
Excerpt: as §1, §2

Another assay relates to Velvetleaf. Nature of the assay: Test B pre-emergence on Fallsington silt loam. The assay is classed as in vivo, Abutilon theophrasti. The conditions noted are these: 28 days.
Excerpt: as §1, §2

The subject of assay [2] is Rice. The assay is described as follows: Test E application to paddy water after transplanting of rice. It counts as in vivo. The source says: (§4) Test samples were formulated and applied directly to the paddy water three days after transplanting of rice. The test was maintained in a greenhouse, and plant response ratings were taken at the stated intervals after application.

In the next assay the test system is Barnyardgrass. The assay is described as above. It counts as in vivo, Echinochloa spp.
Excerpt: as §4

A further assay has as its system Water Chestnut. The assay is described as above. It counts as in vivo, Eleocharis spp.
Excerpt: as §4

In assay [3] the test system is Cotton. Nature of the assay: Test F over-the-top soil/foliage treatment. The assay is classed as in vivo. To be noted: soil/foliage spray, ~14 days. A digest of the protocol: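 Response scores come from visual comparison with untreated controls around two weeks after treatment. Greenhouse plants growing in sandy loam received a foliage-and-soil spray at about 14 days old.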

In another assay the test system is Cocklebur. Nature of the assay: Test F over-the-top soil/foliage treatment. The assay is classed as in vivo, Xanthium pensylvanicum. To be noted: soil/foliage spray, ~14 days. How it is done: (§5) The test chemicals, dissolved in a non-phytotoxic solvent, were applied in an overall spray to the foliage and surrounding […] of selected plant species. […] Approximately fourteen days after treatment, all species were visually compared to untreated controls and rated for response to treatment.
(§6) All plant species were seeded in Woodstown sandy loam soil and grown in a greenhouse. The following species were grown in soil contained in plastic pots (25 cm diameter by 13 cm deep): soybeans, cotton, alfalfa, corn, rice, wheet, sorghum, velvetleaf (Abutilon theophrasti), sesbania (Sesbania exaltata), Cassia (Cassia tora), morningglory (Ipomoea hederacea), jimsonweed (Datura stramonium), cocklebur (Xanthium pensylvanicum), crabgrass (Digitaria spp.), nutsedge (Cyperus rotundus), barnyardgrass (Echinochloa crusgalli), giant foxtail (Setaria faberii) and wild oats (Avena fatua). The following species were grown in soil in a paper cup (12 cm diameter by 13 cm deep): sunflower, sugarbeets, and mustard. All plants were sprayed approximately 14 days after planting.

In the next assay the test system is Crabgrass. Nature of the assay: Test F over-the-top soil/foliage treatment. It counts as in vivo, Digitaria spp. Further details: scale not given here. The conditions noted are these: soil/foliage spray, ~14 days. The method, then:
as §5, §6

The next assay deals with Giant Foxtail. The assay is described as follows: Test B pre-emergence on Fallsington silt loam. It counts as in vivo, Setaria faberii. To be noted: 28 days.
Excerpt: as §1, §2

The subject of assay [4] is Rice. The assay is described as follows: Test B pre-emergence on Fallsington silt loam. The assay is classed as in vivo. To be noted: 28 days. A digest of the protocol:
as §3

In a further assay the test system is Jimsonweed. Nature of the assay: Test B pre-emergence on Fallsington silt loam. It counts as in vivo, Datura stramonium. The conditions noted are these: 28 days.
Excerpt: as §1, §2

In another assay the test system is Ripgut Brome. Nature of the assay: Test D pre-/post-emergence weed control in cereals. It counts as in vivo, Bromus rigidus. To be noted: 20 days. The source says: (§7) Two ten-inch in diameter plastic pans lined with polyethylene liners were filled with prepared Fallsington slit loam soil. One pan was planted with seeds of wheat (Triticum aestivum), barley (Hordeum vulgarel, wild oats (Avena fatua), downy brome (Bromus tectorum), cheatgrass (Bromus secalinus), blackgrass (Alopecurus myosuroides), annual bluegrass (Poa annual, green foxtail (Setaria viridis), quack grass (Agropyron repens), Italian ryegrass (Lolium multiflorum) and ripgut brome (Bromus rigidus). The other pan was planted with seeds of Russian thistle (Salsola kali), tansy mustard (Descuraina pinnata), smartweed (Polygonum pensylvanicum), tumble mustard (Sisymbrium altissium) kochia (Kochia scoparia), shepherd's purse (Capsella bursa-pastoris), Matricaria inodora, black nightshade (Solanum nigrum), yellow rocket (Barbarea vulgaris), wild mustard (Brassica kaber) and wild buckwheat (Polygonum convolvulus). The above two pans were treated pre-emergence. At the same time two pans in which the above plant species were growing were treated post-emergence. Plant height at the time of treatment ranged from 1-15 cm depending on plant species.
(§8) The compounds applied were diluted with a non-phytotoxic solvent and sprayed over-the-top of the pans. An untreated control and a solvent alone control were included for comparison. All treatments were maintained in the greenhouse for 20 days at which time the treatments were compared to the controls and the effects visually rated. The recorded data, presented in Table D, indicate that certain compounds from within the scope of the invention have utility for pre- and/or post-emergence weed control in cereal crops such as wheat and barley.

Another assay concerns Russian Thistle. Nature of the assay: Test D pre-/post-emergence weed control in cereals. It counts as in vivo, Salsola kali. To be noted: 20 days.
Excerpt: as §7, §8

Structures are written as SMILES.

As for `COc1cc(OC)nc(NC(=O)NS(=O)(=O)c2ccccc2OS(C)(=O)=O)n1` [Compound 1, N-[(4,6-Dimethoxypyrimidin-2-yl)aminocarbonyl]-2-hydroxybenzenesulfonamide, methanesulfonate], the Mustard response rating in the assay with Mustard (0.03 kg/ha) and with Mustard (0.12 kg/ha) was 10C throughout. Also, the Cotton response rating turned out to be 8G with Cotton [1] (0.03 kg/ha) and 10C in the assay on Cotton [3] (0.003 kg/ha). Besides, the Teaweed response rating with Teaweed (0.03 kg/ha) worked out at 6G. The Velvetleaf response rating in the assay on Velvetleaf (0.12 kg/ha) is listed as 10C. Also, the “Rice 4 Days” value in the assay on Rice [2] (1 g/ha in paddy water), in the assay with Rice [2] (4 g/ha in paddy water) and in the assay on Rice [2] (8 g/ha in paddy water) was 0 throughout. Also, the “Rice 4 Weeks” value in the assay with Rice [2] (1 g/ha in paddy water), in the assay with Rice [2] (4 g/ha in paddy water) and in the assay with Rice [2] (8 g/ha in paddy water) was 0 in each case. Moreover, the “Barnyardgrass* 4 Weeks” value in the assay with Barnyardgrass (1 g/ha in paddy water), in the assay with Barnyardgrass (4 g/ha in paddy water) and with Barnyardgrass (8 g/ha in paddy water) was 0 in each case. Moreover, the “Water Chestnut** 4 Weeks” value in the assay on Water Chestnut (1 g/ha in paddy water) is 7G; in the assay on Water Chestnut (4 g/ha in paddy water), 8G; in the assay on Water Chestnut (8 g/ha in paddy water), 9G. In addition, the results for the Cocklebur response rating in the assay with Cocklebur (0.003 kg/ha) and with Cocklebur (0.007 kg/ha) were 5G and 7G, respectively. For the same compound, the results for the Crabgrass response rating in the assay with Crabgrass (0.003 kg/ha), in the assay on Crabgrass (0.007 kg/ha) and with Crabgrass (0.015 kg/ha) were 0, 5G and 2C, respectively.

Consider `Cc1cc(C)nc(NC(=O)NS(=O)(=O)c2ccccc2OS(C)(=O)=O)n1` [Compound 3, N-[(4,6-dimethylpyrimidin-2-yl)aminocarbonyl]-2-hydroxybenzenesulfonamide, methanesulfonate], for which the “Giant Foxtail response rating” value with Giant Foxtail (0.007 kg/ha) was 0; in the assay with Giant Foxtail (0.015 kg/ha), 3G; with Giant Foxtail (0.03 kg/ha), 3C. The Mustard response rating came out at 5G with Mustard (0.007 kg/ha), 10C with Mustard (0.03 kg/ha) and 10C with Mustard (0.12 kg/ha). Besides, the Cotton response rating came out at 0 with Cotton [1] (0.007 kg/ha), 0 in the assay on Cotton [1] (0.015 kg/ha) and 10C in the assay on Cotton [3] (0.007 kg/ha). Further, the Rice response rating with Rice [4] (0.007 kg/ha) is given as 3G. Also, the values for the Teaweed response rating in the assay with Teaweed (0.015 kg/ha), in the assay with Teaweed (0.03 kg/ha) and in the assay with Teaweed (0.12 kg/ha) were 0, 4G and 10C, respectively. Besides, the Velvetleaf response rating in the assay on Velvetleaf (0.007 kg/ha) and in the assay with Velvetleaf (0.015 kg/ha) was 0 throughout. For the same compound, the Jimsonweed response rating in the assay on Jimsonweed (0.007 kg/ha) and with Jimsonweed (0.015 kg/ha) was 0 in each case. Besides, in the assay with Cocklebur (0.003 kg/ha), the Cocklebur response rating was 3G. For the same compound, the Crabgrass response rating in the assay on Crabgrass (0.003 kg/ha) and in the assay on Crabgrass (0.015 kg/ha) was 0 throughout.

As for `CCCS(=O)(=O)Oc1ccccc1S(=O)(=O)NC(=O)Nc1nc(OC)cc(OC)n1` [Compound 36, N-[(4,6-dimethoxypropimidin-2-yl)aminocarbonyl]-2-hydroxybenzenesulfonamide, 1-propanesulfonate], in the assay on Giant Foxtail (0.06 kg/ha), the “Giant Foxtail response rating” value was 4G. The compound further displayed a Cotton response rating in the assay with Cotton [1] (0.06 kg/ha) of 4G. For the same compound, the Rice response rating with Rice [4] (0.06 kg/ha) stood at 3G; in the assay with Rice [4] (0.25 kg/ha) it was 5G. Moreover, in the assay with Jimsonweed (0.06 kg/ha), the Jimsonweed response rating is given as 3G. The “Ripgut Brome response rating” value with Ripgut Brome (Post-Emergence, 0.015 kg/ha) turned out to be 0; in the assay on Ripgut Brome (Post-Emergence, 0.06 kg/ha) it was 2G; in the assay with Ripgut Brome (Pre-Emergence, 0.015 kg/ha) it was 2G. The “Russian Thistle response rating” value in the assay on Russian Thistle (Post-Emergence, 0.015 kg/ha) was found to be 0; in the assay with Russian Thistle (Post-Emergence, 0.06 kg/ha) it was 2G; in the assay with Russian Thistle (Pre-Emergence, 0.015 kg/ha) it was 0; in the assay with Russian Thistle (Pre-Emergence, 0.06 kg/ha), 1G. In addition, the “Rice 1 Week” value in the assay with Rice [2] (25 g/ha in paddy water) and in the assay with Rice [2] (100 g/ha in paddy water) was 0 each time. Also, the “Rice 8 Weeks” value in the assay with Rice [2] (25 g/ha in paddy water) and in the assay on Rice [2] (100 g/ha in paddy water) was 0 in each case. Also, the “Barnyardgrass* 8 Weeks” value in the assay with Barnyardgrass (25 g/ha in paddy water) and in the assay on Barnyardgrass (100 g/ha in paddy water) was 0 in each case. The “Water Chestnut** 8 Weeks” value with Water Chestnut (25 g/ha in paddy water) and with Water Chestnut (100 g/ha in paddy water) was 10C in each case.

As for `CCCS(=O)(=O)Oc1ccccc1S(=O)(=O)NC(=O)Nc1nc(C)nc(OC)n1` [Compound 39, 2-hydroxy-N-[(4-methoxy-6-methyl-1,3,5-triazin-2-yl)aminocarbonyl]benzenesulfonamide, 1-propanesulfonate], the “Giant Foxtail response rating” value with Giant Foxtail (0.06 kg/ha) worked out at 0; with Giant Foxtail (0.25 kg/ha), 2G. Besides, the Rice response rating with Rice [4] (0.06 kg/ha) and in the assay on Rice [4] (0.25 kg/ha) was 0 in each case. Further, the Crabgrass response rating in the assay on Crabgrass (0.007 kg/ha), in the assay on Crabgrass (0.015 kg/ha), in the assay with Crabgrass (0.03 kg/ha), in the assay on Crabgrass (0.06 kg/ha) and with Crabgrass (0.12 kg/ha) was 0 in each case.
